Tests used:
[1] = biological target: KRas G13D (Homo sapiens, UniProt P01116, G13D); assay type: binding; conditions: for inhibition at 0.01 µM: single point, 10 nM compound, read-out: Binding to KRas (% inhibition at 10 nM) G13D; for IC50: TR-FRET displacement, read-out: Binding to KRas (IC50 nM) G13D
[2] = system: H358 cells; test: Inhibition of KRas-mediated phosphorylation of ERK (Cisbio HTRF pERK), H358 cells; assay type: cell-based; conditions: Homo sapiens; for inhibition at 0.1 µM: NCI-H358, single point at 100 nM, 3 hrs compound incubation; for IC50: NCI-H358, 3 h, 3 hr compound incubation
[3] = biological target: KRas G12C (Homo sapiens, UniProt P01116, G12C); assay type: binding; conditions: for inhibition at 0.01 µM: single point, 10 nM compound, read-out: Binding to KRas (% inhibition at 10 nM) G12C; for IC50: TR-FRET displacement, read-out: Binding to KRas (IC50 nM) G12C
[4] = system: ASPC1 cells; test: Inhibition of KRas-mediated phosphorylation of ERK (Cisbio HTRF pERK), ASPC1 cells; assay type: cell-based; conditions: Homo sapiens, AsPC-1 cells; for IC50: ASPC1, 3 h, 3 hr compound incubation; for inhibition at 0.1 µM: ASPC1, single point at 100 nM, 3 hrs compound incubation
[5] = biological target: KRas G12D (Homo sapiens, UniProt P01116, G12D); test: biochemical; conditions: Binding to KRas (IC50 nM) G12D, TR-FRET displacement, KRas G12D
[6] = biological target: KRas G12S (Homo sapiens, UniProt P01116, G12S); assay type: binding; conditions: for inhibition at 0.01 µM: single point, 10 nM compound, read-out: Binding to KRas (% inhibition at 10 nM) G12S; for IC50: TR-FRET displacement, read-out: Binding to KRas (IC50 nM) G12S
[7] = system: A549 cells; test: Inhibition of KRas-mediated phosphorylation of ERK (Cisbio HTRF pERK), A549 cells; assay type: cell-based; conditions: Homo sapiens; for inhibition at 0.1 µM: single point at 100 nM, 3 hrs compound incubation; for IC50: A549, 3 h, 3 hr compound incubation
[8] = system: H460 cells; test: Inhibition of KRas-mediated phosphorylation of ERK (Cisbio HTRF pERK), H460 cells; assay type: cell-based; conditions: Homo sapiens, NCI-H460, single point at 100 nM, 3 hrs compound incubation
[9] = biological target: KRas G12A (Homo sapiens, UniProt P01116, G12A); assay type: binding; conditions: for inhibition at 0.01 µM: single point, 10 nM compound, read-out: Binding to KRas (% inhibition at 10 nM) G12A; for IC50: TR-FRET displacement, read-out: Binding to KRas (IC50 nM) G12A
[10] = biological target: KRas G12V (Homo sapiens, UniProt P01116, G12V); test: biochemical; conditions: Binding to KRas (IC50 nM) G12V, TR-FRET displacement, KRas G12V
[11] = biological target: KRas Q61H (Homo sapiens, UniProt P01116, Q61H); test: KRas binding assay (TR-FRET displacement), KRas Q61H; conditions: for inhibition at 0.01 µM: single point, 10 nM compound; for IC50: TR-FRET displacement
[12] = biological target: KRas WT (Homo sapiens, UniProt P01116); test: KRas binding assay (TR-FRET displacement), KRas WT; conditions: for inhibition at 0.01 µM: single point, 10 nM compound; for IC50: TR-FRET displacement
[13] = system: H727 cells; test: Inhibition of KRas-mediated phosphorylation of ERK (Cisbio HTRF pERK), H727 cells; assay type: cell-based; conditions: Homo sapiens; for IC50: NCI-H727, 3 h, 3 hr compound incubation; for inhibition at 0.1 µM: NCI-H727, single point at 100 nM, 3 hrs compound incubation
[14] = biological target: KRas G12R (Homo sapiens, UniProt P01116, G12R); test: biochemical; conditions: Binding to KRas (IC50 nM) G12R, TR-FRET displacement, KRas G12R
[15] = system: HCT116 cells; test: Inhibition of KRas-mediated phosphorylation of ERK (Cisbio HTRF pERK), HCT116 cells; assay type: cell-based; conditions: Homo sapiens, HCT-116, single point at 100 nM, 3 hrs compound incubation
[16] = system: MKN1 cells; test: Inhibition of KRas-mediated phosphorylation of ERK (Cisbio HTRF pERK), MKN1 cells; assay type: cell-based; conditions: Homo sapiens
Method: (§1) Inhibition of KRas Phosphorylation of ERK (HTRF) by Exemplary Compounds of Formula (I) Cisbio HTRF Advanced pERK Assay Catalog #64AERPEH • Cells: MKN1, PSN1 • Procedure: • Day 1: Seed 6,000 cells/well -25 µl/well in 384-well white solid bottom plate; RPM1_10% FBS.

[17] = system: PSN1 cells; test: Inhibition of KRas-mediated phosphorylation of ERK (Cisbio HTRF pERK), PSN1 cells; assay type: cell-based; conditions: Homo sapiens, PSN1, 3 h, 3 hour compound incubation, Cisbio pERK HTRF
Method: as §1

[18] = MKN-1, 3 hr compound incubation

KRas WT, sequence (P01116 1-169 isoform P01116-2): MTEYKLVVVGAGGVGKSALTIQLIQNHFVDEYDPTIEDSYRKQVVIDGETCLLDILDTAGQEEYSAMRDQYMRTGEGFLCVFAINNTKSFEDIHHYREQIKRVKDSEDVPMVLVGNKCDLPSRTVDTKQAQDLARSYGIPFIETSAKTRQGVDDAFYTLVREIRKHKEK
KRas G12C, sequence (P01116 1-169 isoform P01116-2 G12C): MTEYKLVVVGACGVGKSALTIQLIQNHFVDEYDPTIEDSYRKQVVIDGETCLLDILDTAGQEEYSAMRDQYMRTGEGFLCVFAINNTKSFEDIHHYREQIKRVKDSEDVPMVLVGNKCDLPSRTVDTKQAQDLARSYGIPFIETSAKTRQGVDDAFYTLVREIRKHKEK
KRas G12S, sequence (P01116 1-169 isoform P01116-2 G12S): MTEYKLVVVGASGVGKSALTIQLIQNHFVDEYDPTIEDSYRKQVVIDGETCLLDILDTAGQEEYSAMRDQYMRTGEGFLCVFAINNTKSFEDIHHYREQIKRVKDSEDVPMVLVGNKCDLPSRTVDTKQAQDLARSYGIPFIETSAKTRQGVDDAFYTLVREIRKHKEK
KRas G12R, sequence (P01116 1-169 isoform P01116-2 G12R): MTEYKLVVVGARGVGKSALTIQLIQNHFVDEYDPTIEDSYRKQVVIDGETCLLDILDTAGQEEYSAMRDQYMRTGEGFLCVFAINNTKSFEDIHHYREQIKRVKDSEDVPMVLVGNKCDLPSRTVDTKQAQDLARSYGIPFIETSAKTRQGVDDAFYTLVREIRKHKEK
KRas G12V, sequence (P01116 1-169 isoform P01116-2 G12V): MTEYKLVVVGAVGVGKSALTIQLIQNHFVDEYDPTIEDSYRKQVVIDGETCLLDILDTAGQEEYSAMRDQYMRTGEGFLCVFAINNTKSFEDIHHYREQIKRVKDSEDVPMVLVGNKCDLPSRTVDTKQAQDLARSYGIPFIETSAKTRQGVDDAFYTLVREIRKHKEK
KRas G13D, sequence (P01116 1-169 isoform P01116-2 G13D): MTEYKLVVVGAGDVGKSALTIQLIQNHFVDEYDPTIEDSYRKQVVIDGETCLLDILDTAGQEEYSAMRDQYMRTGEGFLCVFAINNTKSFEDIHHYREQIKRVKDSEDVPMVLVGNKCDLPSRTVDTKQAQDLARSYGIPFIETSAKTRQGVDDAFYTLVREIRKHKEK
KRas G12A, sequence (P01116 1-169 isoform P01116-2 G12A): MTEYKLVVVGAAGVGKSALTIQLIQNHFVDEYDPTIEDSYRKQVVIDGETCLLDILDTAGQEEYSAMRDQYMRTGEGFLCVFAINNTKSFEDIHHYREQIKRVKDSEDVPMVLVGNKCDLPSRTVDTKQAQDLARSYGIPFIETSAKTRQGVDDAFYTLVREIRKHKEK
KRas Q61H, sequence (P01116 1-169 isoform P01116-2 Q61H): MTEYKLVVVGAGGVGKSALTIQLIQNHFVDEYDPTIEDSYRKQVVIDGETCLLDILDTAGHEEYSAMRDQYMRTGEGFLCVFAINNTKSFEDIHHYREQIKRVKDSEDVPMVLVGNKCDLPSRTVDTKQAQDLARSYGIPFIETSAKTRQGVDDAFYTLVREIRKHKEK
KRas G12D, sequence (P01116 1-169 isoform P01116-2 G12D): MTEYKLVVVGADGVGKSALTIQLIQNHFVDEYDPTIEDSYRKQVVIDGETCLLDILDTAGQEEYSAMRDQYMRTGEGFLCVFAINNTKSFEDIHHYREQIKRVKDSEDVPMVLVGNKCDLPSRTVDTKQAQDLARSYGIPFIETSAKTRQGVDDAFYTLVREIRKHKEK

Work on `CCc1c(F)ccc2cc(O)cc(N3CCc4c(nc(OC[C@@]56CCCN5C[C@H](F)C6)nc4N4CCCn5nc(C(=O)N6CC7CCC6CN7)cc5C4)C3)c12` (stereo partly drawn) [Example 264, 2,5-diazabicyclo[2.2.2]octan-2-yl(5-(7-(8-ethyl-7-fluoro-3-hydroxynaphthalen-1-yl)-2-(((2R,7aS)-2-fluorohexahydro-1H-pyrrolizin-7a-yl)methoxy)-5,6,7,8-tetrahydropyrido[3,4-d]pyrimidin-4-yl)-5,6,7,8-tetrahydro-4H-pyrazolo[1,5-a][1,4]diazepin-2-yl)methanone] yielded an inhibition at 0.01 µM [1] of 97%, an inhibition at 0.1 µM [2] of 43% and an inhibition at 0.01 µM [3] of 100%. For the same compound, the IC50 ([4]; Cisbio pERK HTRF) was 51 nM, the inhibition at 0.1 µM [4] was 34% and the IC50 [5] was under 2 nM. For the same compound, the inhibition at 0.01 µM [6] was 99%, the inhibition at 0.1 µM [7] was 15% and the inhibition at 0.1 µM [8] was 0%. The inhibition at 0.01 µM [9] was 95%, the IC50 [10] was under 2 nM and the inhibition at 0.01 µM [11] was 98%. The inhibition at 0.01 µM [12] was 96%, the IC50 ([13]; Cisbio pERK HTRF) was 259 nM and the inhibition at 0.1 µM [13] was 22%. The IC50 [14] was under 2 nM and the inhibition at 0.1 µM [15] was -7%.
Compound `CCc1c(F)ccc2cc(O)cc(N3CCc4c(nc(OC[C@@]56CCCN5C[C@H](F)C6)nc4N4CCCn5nc(CN(C)C(=O)N(C)C)cc5C4)C3)c12` [Example 288, 1-((5-(7-(8-ethyl-7-fluoro-3-hydroxynaphthalen-1-yl)-2-(((2R,7aS)-2-fluorohexahydro-1H-pyrrolizin-7a-yl)methoxy)-5,6,7,8-tetrahydropyrido[3,4-d]pyrimidin-4-yl)-5,6,7,8-tetrahydro-4H-pyrazolo[1,5-a][1,4]diazepin-2-yl)methyl)-1,3,3-trimethylurea] has an inhibition at 0.01 µM [1] of 40%, an inhibition at 0.1 µM [2] of 26% and an inhibition at 0.01 µM [3] of 56%. It also gave an IC50 ([4]; Cisbio pERK HTRF) of 67 nM, an IC50 [5] of 4 nM and an inhibition at 0.01 µM [6] of 53%. For the same compound, the inhibition at 0.1 µM [7] was 22%, the inhibition at 0.1 µM [8] was 3% and the inhibition at 0.01 µM [9] was 38%. For the same compound, the IC50 [10] was 6 nM, the inhibition at 0.01 µM [11] was 33% and the inhibition at 0.01 µM [12] was 38%. The IC50 ([13]; Cisbio pERK HTRF) was 189 nM, the IC50 [14] was 9 nM and the inhibition at 0.1 µM [15] was 17%.
Compound `CCc1c(F)ccc2cc(O)cc(N3CCc4c(nc(OC[C@@]56CCCN5C[C@H](F)C6)nc4N4CCCc5nc(C(=O)N(C)C)sc5C4)C3)c12` [Example 304, 5-(7-(8-ethyl-7-fluoro-3-hydroxynaphthalen-1-yl)-2-(((2R,7aS)-2-fluorohexahydro-1H-pyrrolizin-7a-yl)methoxy)-5,6,7,8-tetrahydropyrido[3,4-d]pyrimidin-4-yl)-N,N-dimethyl-5,6,7,8-tetrahydro-4H-thiazolo[5,4-c]azepine-2-carboxamide] has an inhibition at 0.01 µM [1] of 72%, an inhibition at 0.1 µM [2] of 43% and an inhibition at 0.01 µM [3] of 83%. It also gave an IC50 ([4]; Cisbio pERK HTRF) of 54 nM, an IC50 [5] of 3 nM and an inhibition at 0.01 µM [6] of 77%. It also gave an inhibition at 0.1 µM [7] of 33%, an inhibition at 0.1 µM [8] of 25% and an inhibition at 0.01 µM [9] of 63%. The IC50 [10] was 3 nM, the inhibition at 0.01 µM [11] was 73% and the inhibition at 0.01 µM [12] was 70%. It also gave an IC50 ([13]; Cisbio pERK HTRF) of 180 nM, an IC50 [14] of 3 nM and an inhibition at 0.1 µM [15] of -15%.
Compound `CCc1c(F)ccc2cc(O)cc(N3CCc4c(nc(OC[C@@]56CCCN5C[C@H](F)C6)nc4NCC4CNS(=O)(=O)N4)C3)c12` (stereo partly drawn) [Example 410, 3-(((7-(8-ethyl-7-fluoro-3-hydroxynaphthalen-1-yl)-2-(((2R,7aS)-2-fluorohexahydro-1H-pyrrolizin-7a-yl)methoxy)-5,6,7,8-tetrahydropyrido[3,4-d]pyrimidin-4-yl)amino)methyl)-1,2,5-thiadiazolidine 1,1-dioxide] has an IC50 ([4]; Cisbio pERK HTRF) of over 10000 nM, an IC50 [5] of 18 nM and an IC50 ([16]; MKN-1, 3 hour compound incubation, Cisbio pERK HTRF) of 217 nM. The IC50 [10] was 4 nM, the IC50 ([13]; Cisbio pERK HTRF) was 1670 nM and the IC50 [14] was 7 nM. The IC50 [17] was over 10000 nM.
`CC1(O)COCCN(c2nc(OCC34CCCN3CCC4)nc3c2CCN(c2cc(O)cc(Cl)c2C2CC2)C3)C1` (stereo not drawn) [Example 436, 4-(7-(3-chloro-2-cyclopropyl-5-hydroxyphenyl)-2-((tetrahydro-1H-pyrrolizin-7a(5H)-yl)methoxy)-5,6,7,8-tetrahydropyrido[3,4-d]pyrimidin-4-yl)-6-methyl-1,4-oxazepan-6-ol] was tested, and the IC50 [1] was 10 nM, the inhibition at 0.1 µM [2] was 10% and the IC50 [3] was 8 nM. For the same compound, the IC50 ([4]; Cisbio pERK HTRF) was 1760 nM, the inhibition at 0.1 µM [4] was -12% and the IC50 [5] was 7 nM. The IC50 [6] was 10 nM, the inhibition at 0.1 µM [7] was 3% and the inhibition at 0.1 µM [8] was -4%. The IC50 [9] was 11 nM, the IC50 [10] was 8 nM and the IC50 [11] was 10 nM. It also gave an IC50 [12] of 10 nM, an IC50 ([13]; Cisbio pERK HTRF) of 2950 nM and an inhibition at 0.1 µM [13] of 12%. The IC50 [14] was 17 nM and the inhibition at 0.1 µM [15] was 5%.
Work on `Cc1cc2[nH]ncc2c(N2CCc3c(nc(OCC4(CN(C)C)CC4)nc3N3CCC[C@]4(C3)NC(=O)NC4=O)C2)c1C` [Example 462, (R)-7-(7-(5,6-dimethyl-1H-indazol-4-yl)-2-((1-((dimethylamino)methyl)cyclopropyl)methoxy)-5,6,7,8-tetrahydropyrido[3,4-d]pyrimidin-4-yl)-1,3,7-triazaspiro[4.5]decane-2,4-dione] yielded an IC50 [1] of 9 nM, an inhibition at 0.1 µM [2] of 1% and an IC50 [3] of 6 nM. For the same compound, the IC50 ([4]; Cisbio pERK HTRF) was over 10000 nM, the inhibition at 0.1 µM [4] was -6% and the IC50 [5] was 16 nM. For the same compound, the IC50 [6] was 9 nM, the inhibition at 0.1 µM [7] was 8% and the inhibition at 0.1 µM [8] was 9%. The IC50 [9] was 10 nM, the IC50 [10] was 7 nM and the IC50 [11] was 10 nM. The IC50 [12] was 9 nM, the IC50 ([13]; Cisbio pERK HTRF) was over 10000 nM and the inhibition at 0.1 µM [13] was -8%. The IC50 [14] was 7 nM and the inhibition at 0.1 µM [15] was 3%.
In the case of `C=C1CN2CCCC2(COc2nc3c(c(N4CCCC5(CC(O)C5)C4)n2)CCN(c2cc(O)cc4ccc(F)c(CC)c24)C3)C1` (stereo not drawn) [Example 660, 6-(7-(8-ethyl-7-fluoro-3-hydroxynaphthalen-1-yl)-2-((2-methylenetetrahydro-1H-pyrrolizin-7a(5H)-yl)methoxy)-5,6,7,8-tetrahydropyrido[3,4-d]pyrimidin-4-yl)-6-azaspiro[3.5]nonan-2-ol], the IC50 [2] is reported as 25 nM, the IC50 [3] is reported as under 2 nM and the IC50 [4] is reported as 261 nM. For the same compound, the IC50 [5] was 3 nM, the IC50 [16, 18] was 28.2 nM and the IC50 [6] was under 2 nM. It also gave an IC50 [7] of 131 nM, an IC50 [10] of under 2 nM and an IC50 [12] of under 2 nM. For the same compound, the IC50 [13] was 204 nM.
Work on `C=C1CN2CCCC2(COc2nc3c(c(N4CC5CC(O)CC4C5)n2)CCN(c2cc(O)cc4ccc(F)c(CC)c24)C3)C1` (stereo not drawn) [Example 661, 6-(7-(8-ethyl-7-fluoro-3-hydroxynaphthalen-1-yl)-2-((2-methylenetetrahydro-1H-pyrrolizin-7a(5H)-yl)methoxy)-5,6,7,8-tetrahydropyrido[3,4-d]pyrimidin-4-yl)-6-azabicyclo[3.2.1]octan-3-ol] yielded an IC50 [2] of 864 nM, an IC50 [3] of 32 nM and an IC50 [4] of over 10000 nM. The IC50 [5] was 143 nM, the IC50 [16, 18] was 1380 nM and the IC50 [6] was 21 nM. It also gave an IC50 [7] of 3800 nM, an IC50 [10] of 33 nM and an IC50 [12] of 25 nM. The IC50 [13] was 4780 nM.

From patent US20250368649A1, “TETRAHYDROPYRIDOPYRIMIDINE PAN-KRAS INHIBITORS” (Mirati Therapeutics, Inc., priority 2022, published 2025)
